Tested on: participants with schizophrenia or related psychotic disorder
Test: Scale for the Assessment of Negative Symptoms (SANS), double-blind placebo-controlled study of CBD as adjunctive therapy
Format: in vivo, human
Procedure: Example 1 below describes the use of a highly purified cannabis extract comprising cannabidiol (CBD) in a human clinical trial. Example 1 describes data produced in a double-blind, randomised, placebo-controlled, parallel group study of highly purified CBD as adjunctive therapy in first line treatment of schizophrenia or related psychotic disorder.
An eight-week, multi-centre, double-blind, randomised, placebo-controlled, parallel group study was conducted with the aim to determine the efficacy, safety and tolerability of highly purified CBD as adjunctive therapy in first line treatment of schizophrenia or related psychotic disorder.
This study evaluated the efficacy of highly purified CBD compared with placebo on the participant's PANSS Total score, ‘P’, ‘N’, ‘G’, SANS and BACS scores.
Changes from baseline in PANSS scores (Total, ‘P’, ‘N’ and ‘G’), SANS and BACS were recorded at the start of the study (baseline) and at the end of treatment (after 6 weeks treatment with CBD or placebo).
For inclusion in the study participants were required to be male or female aged 18 to 65 years, diagnosed with schizophrenia or a related psychotic disorder (such as schizoaffective or schizophreniform disorder) as defined by the Diagnostic and Statistical Manual of Mental Disorders Version 4. Participants must have been treated for a minimum of four-weeks and be on a stable dose of their current antipsychotic medication. […] A PANSS score in excess of 60 infers that the patient has symptoms related to schizophrenia or related disorders.
The participants were randomised to one of two treatment groups which each consisted of 39 participants. Treatment was administered as either 5 ml CBD (100 mg/ml) oral solution to be taken twice daily or 5 ml matched placebo oral solution to be taken twice daily.
Scale for the Assessment of Negative Symptoms (SANS)
SANS assesses five symptom complexes to obtain clinical ratings of negative symptoms in participants with schizophrenia or related psychotic disorder. They are: affective blunting; alogia (impoverished thinking); avolition/apathy; anhedonia/asociality; and disturbance of attention.
Assessments are conducted on a six-point scale (0=not at all to 5=severe). This scale was measured at each assessment visit (Visit 1-4)

[1] = CBD adjunct, 6 weeks, all patients
[2] = CBD adjunct, 6 weeks, patients on amisulpride
[3] = CBD adjunct, 6 weeks, patients on aripiprazole
[4] = CBD adjunct, 6 weeks, patients on olanzapine
[5] = CBD adjunct, 6 weeks, patients on other antipsychotics
[6] = CBD adjunct, 6 weeks, patients on quetiapine
[7] = CBD adjunct, 6 weeks, patients on risperidone

C=C(C)[C@@H]1CCC(C)=C[C@H]1c1c(O)cc(CCCCC)cc1O [CBD, Cannabidiol]
Change in baseline scores, SANS question 15: Impersistence at work or school [1]: −0.5
Change in baseline scores, SANS question 18: Recreational interests and activity [1]: −0.6
Change in baseline scores, SANS question 19: Sexual interest and activity [1]: −0.4
Change in baseline scores, SANS question 20: Ability to feel closeness and intimacy [1]: −0.3
Change in baseline scores, SANS question 21: Relationships with friends and peers [1]: −0.3
Change in baseline scores, SANS question 22: Global rating of anhedonia [1]: −0.3
Change in baseline scores, SANS question 23: Social inattentiveness [1]: −0.5
Change in baseline scores, SANS question 24: Inattentiveness during mental status testing [1]: −0.6
Change in baseline scores, SANS question 25: Global rating of attention [1]: −0.5
Change in baseline scores, SANS sub-scale 4 (anhedonia/asociality) [1]: −1.9
Change in baseline scores, SANS sub-scale 5 (disturbance of attention) [1]: −1.6
Change in baseline scores, SANS total score [1]: −9.5
Change in baseline scores, SANS question 15: Impersistence at work or school [2]: −0.5
Change in baseline scores, SANS question 18: Recreational interests and activity [2]: 0.0
Change in baseline scores, SANS question 19: Sexual interest and activity [2]: 0.0
Change in baseline scores, SANS question 20: Ability to feel closeness and intimacy [2]: −0.1
Change in baseline scores, SANS question 21: Relationships with friends and peers [2]: −0.1
Change in baseline scores, SANS question 22: Global rating of anhedonia [2]: −0.1
Change in baseline scores, SANS question 23: Social inattentiveness [2]: −0.1
Change in baseline scores, SANS question 24: Inattentiveness during mental status testing [2]: −0.8
Change in baseline scores, SANS question 25: Global rating of attention [2]: 0.0
Change in baseline scores, SANS score [2]: −2.4
Change in baseline scores, SANS sub-scale 4 (anhedonia/asociality) [2]: −0.1
Change in baseline scores, SANS sub-scale 5 (disturbance of attention) [2]: −1.0
Change in baseline scores, SANS question 15: Impersistence at work or school [3]: −0.3
Change in baseline scores, SANS question 18: Recreational interests and activity [3]: −0.1
Change in baseline scores, SANS question 19: Sexual interest and activity [3]: −0.1
Change in baseline scores, SANS question 20: Ability to feel closeness and intimacy [3]: 0.0
Change in baseline scores, SANS question 21: Relationships with friends and peers [3]: −0.1
Change in baseline scores, SANS question 22: Global rating of anhedonia [3]: 0.0
Change in baseline scores, SANS question 23: Social inattentiveness [3]: −0.4
Change in baseline scores, SANS question 24: Inattentiveness during mental status testing [3]: −0.5
Change in baseline scores, SANS question 25: Global rating of attention [3]: −0.4
Change in baseline scores, SANS score [3]: −4.7
Change in baseline scores, SANS sub-scale 4 (anhedonia/asociality) [3]: −0.2
Change in baseline scores, SANS sub-scale 5 (disturbance of attention) [3]: −1.3
Change in baseline scores, SANS question 15: Impersistence at work or school [4]: −1.2
Change in baseline scores, SANS question 18: Recreational interests and activity [4]: −1.3
Change in baseline scores, SANS question 19: Sexual interest and activity [4]: −1.0
Change in baseline scores, SANS question 20: Ability to feel closeness and intimacy [4]: −1.0
Change in baseline scores, SANS question 21: Relationships with friends and peers [4]: −0.6
Change in baseline scores, SANS question 22: Global rating of anhedonia [4]: −0.8
Change in baseline scores, SANS question 23: Social inattentiveness [4]: −0.9
Change in baseline scores, SANS question 24: Inattentiveness during mental status testing [4]: −0.7
Change in baseline scores, SANS question 25: Global rating of attention [4]: −0.9
Change in baseline scores, SANS score [4]: −20.5
Change in baseline scores, SANS sub-scale 4 (anhedonia/asociality) [4]: −4.9
Change in baseline scores, SANS sub-scale 5 (disturbance of attention) [4]: −2.5
Change in baseline scores, SANS question 18: Recreational interests and activity [5]: −0.4
Change in baseline scores, SANS question 19: Sexual interest and activity [5]: −0.3
Change in baseline scores, SANS question 20: Ability to feel closeness and intimacy [5]: −0.1
Change in baseline scores, SANS question 21: Relationships with friends and peers [5]: −0.2
Change in baseline scores, SANS question 22: Global rating of anhedonia [5]: −0.2
Change in baseline scores, SANS question 23: Social inattentiveness [5]: −0.9
Change in baseline scores, SANS question 24: Inattentiveness during mental status testing [5]: −1.3
Change in baseline scores, SANS question 25: Global rating of attention [5]: −0.3
Change in baseline scores, SANS score [5]: −10.6
Change in baseline scores, SANS sub-scale 4 (anhedonia/asociality) [5]: −1.2
Change in baseline scores, SANS sub-scale 5 (disturbance of attention) [5]: −2.5
Change in baseline scores, SANS question 18: Recreational interests and activity [6]: −1.3
Change in baseline scores, SANS question 19: Sexual interest and activity [6]: −1.5
Change in baseline scores, SANS question 20: Ability to feel closeness and intimacy [6]: −0.4
Change in baseline scores, SANS question 21: Relationships with friends and peers [6]: −0.7
Change in baseline scores, SANS question 22: Global rating of anhedonia [6]: −1.3
Change in baseline scores, SANS question 23: Social inattentiveness [6]: −0.6
Change in baseline scores, SANS question 24: Inattentiveness during mental status testing [6]: −0.9
Change in baseline scores, SANS question 25: Global rating of attention [6]: −0.5
Change in baseline scores, SANS score [6]: −10.4
Change in baseline scores, SANS sub-scale 4 (anhedonia/asociality) [6]: −5.1
Change in baseline scores, SANS sub-scale 5 (disturbance of attention) [6]: −1.8
Change in baseline scores, SANS question 15: Impersistence at work or school [7]: −0.3
Change in baseline scores, SANS question 18: Recreational interests and activity [7]: −0.3
Change in baseline scores, SANS question 19: Sexual interest and activity [7]: 0.0
Change in baseline scores, SANS question 20: Ability to feel closeness and intimacy [7]: 0.0
Change in baseline scores, SANS question 21: Relationships with friends and peers [7]: −0.1
Change in baseline scores, SANS question 22: Global rating of anhedonia [7]: −0.2
Change in baseline scores, SANS question 23: Social inattentiveness [7]: 0.2
Change in baseline scores, SANS question 24: Inattentiveness during mental status testing [7]: −0.1
Change in baseline scores, SANS question 25: Global rating of attention [7]: 0.0
Change in baseline scores, SANS score [7]: −3.6
Change in baseline scores, SANS sub-scale 4 (anhedonia/asociality) [7]: −0.4
Change in baseline scores, SANS sub-scale 5 (disturbance of attention) [7]: 0.1
Change in baseline scores, SANS question 15: Impersistence at work or school: difference (CBD vs placebo, all patients, P = 0.0187): (−0.4)

From US20210059959A1, “USE OF CANNABINOIDS IN THE TREATMENT OF MENTAL DISORDERS” (GW Pharma Limited, priority 2015, published 2021)
